Results: the supplement of paper PMC10307832

Tests used:
Experiment in all cases: relative viability (nuclei count vs DMSO), 5 days (fraction); higher = more cells survive
[1] = test system: A-427
How it was run: (§1)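 Values are medians from duplicate plates. Each reflects relative viability, defined as the nuclei count of treated wells over that of vehicle wells. Lung cancer cell lines in 1536-well plates were pin-tool dosed one day after seeding with one drug alone or with a fixed anchor-drug dose plus five library-drug doses (not always all listed) in √10 steps, then fixed, stained and imaged at 4× after 5 days.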

[2] = test system: COR-L 105
How it was run: as §1

[3] = test system: ChaGo-K-1
How it was run: as §1

[4] = test system: EKVX
How it was run: as §1

[5] = test system: EMC-BAC-2
How it was run: as §1

[6] = test system: H3255
How it was run: as §1

[7] = test system: HCC-366
How it was run: as §1

[8] = test system: LK-2
How it was run: as §1

[9] = test system: LOU-NH91
How it was run: as §1

[10] = test system: NCI-H1563
How it was run: as §1

[11] = test system: NCI-H1666
How it was run: as §1

[12] = test system: NCI-H1734
How it was run: as §1

[13] = test system: NCI-H1755
How it was run: as §1

[14] = test system: NCI-H1975
How it was run: as §1

[15] = test system: NCI-H2170
How it was run: as §1

[16] = test system: NCI-H23
How it was run: as §1

[17] = test system: NCI-H441
How it was run: as §1

[18] = test system: NCI-H520
How it was run: as §1

[19] = test system: NCI-H596
How it was run: as §1

[20] = test system: PC-3 [JPC-3]
How it was run: as §1

[21] = test system: SK-MES-1
How it was run: as §1

[22] = test system: SW 900
How it was run: as §1

O=c1cc(-c2cccc3c2Sc2ccccc2S3)oc(N2CCOCC2)c1 + COc1cc2c(Oc3ccc(NC(=O)C4(C(=O)Nc5ccc(F)cc5)CC4)cc3F)ccnc2cc1OCCCN1CCOCC1 [Foretinib] (partner 0.25 µM)
relative viability ([1]; first compound 0.08 µM): 1.05
relative viability ([1]; first compound 0.253 µM): 1
relative viability ([1]; first compound 0.8 µM): 1.06
relative viability ([1]; first compound 8 µM): 1.11
relative viability ([2]; first compound 0.08 µM): 1.31
relative viability ([2]; first compound 0.253 µM): 0.854
relative viability ([2]; first compound 0.8 µM): 0.8
relative viability ([2]; first compound 2.53 µM): 1.08
relative viability ([2]; first compound 8 µM): 1.38
relative viability ([3]; first compound 0.08 µM): 0.883
relative viability ([3]; first compound 0.253 µM): 0.98
relative viability ([3]; first compound 0.8 µM): 1.03
relative viability ([3]; first compound 2.53 µM): 0.88
relative viability ([3]; first compound 8 µM): 0.861
relative viability ([4]; first compound 0.08 µM): 0.785
relative viability ([4]; first compound 0.253 µM): 0.892
relative viability ([4]; first compound 0.8 µM): 0.751
relative viability ([4]; first compound 2.53 µM): 0.734
relative viability ([4]; first compound 8 µM): 1.33
relative viability ([5]; first compound 0.08 µM): 0.998
relative viability ([5]; first compound 0.253 µM): 0.987
relative viability ([5]; first compound 0.8 µM): 1
relative viability ([5]; first compound 2.53 µM): 1.03
relative viability ([5]; first compound 8 µM): 1.12
relative viability ([6]; first compound 0.08 µM): 0.758
relative viability ([6]; first compound 0.253 µM): 0.821
relative viability ([6]; first compound 0.8 µM): 0.87
relative viability ([6]; first compound 2.53 µM): 0.738
relative viability ([6]; first compound 8 µM): 0.925
relative viability ([7]; first compound 0.08 µM): 0.911
relative viability ([7]; first compound 0.253 µM): 0.89
relative viability ([7]; first compound 0.8 µM): 0.635
relative viability ([7]; first compound 2.53 µM): 0.903
relative viability ([7]; first compound 8 µM): 1.03
relative viability ([8]; first compound 0.08 µM): 0.933
relative viability ([8]; first compound 0.253 µM): 1.24
relative viability ([8]; first compound 0.8 µM): 1.23
relative viability ([8]; first compound 2.53 µM): 0.997
relative viability ([8]; first compound 8 µM): 1.25
relative viability ([9]; first compound 0.08 µM): 0.976
relative viability ([9]; first compound 0.253 µM): 0.906
relative viability ([9]; first compound 0.8 µM): 0.833
relative viability ([9]; first compound 2.53 µM): 0.838
relative viability ([9]; first compound 8 µM): 0.967
relative viability ([10]; first compound 0.08 µM): 0.922
relative viability ([10]; first compound 0.253 µM): 0.895
relative viability ([10]; first compound 0.8 µM): 0.868
relative viability ([10]; first compound 2.53 µM): 0.89
relative viability ([10]; first compound 8 µM): 0.91
relative viability ([11]; first compound 0.08 µM): 1
relative viability ([11]; first compound 0.253 µM): 1.07
relative viability ([11]; first compound 0.8 µM): 1.13
relative viability ([11]; first compound 2.53 µM): 0.971
relative viability ([11]; first compound 8 µM): 0.908
relative viability ([12]; first compound 0.08 µM): 0.788
relative viability ([12]; first compound 0.253 µM): 1.04
relative viability ([12]; first compound 0.8 µM): 0.99
relative viability ([12]; first compound 8 µM): 0.94
relative viability ([13]; first compound 0.08 µM): 0.861
relative viability ([13]; first compound 0.253 µM): 0.976
relative viability ([13]; first compound 0.8 µM): 0.913
relative viability ([13]; first compound 2.53 µM): 0.899
relative viability ([13]; first compound 8 µM): 0.943
relative viability ([14]; first compound 0.08 µM): 0.966
relative viability ([14]; first compound 0.253 µM): 0.924
relative viability ([14]; first compound 0.8 µM): 0.931
relative viability ([14]; first compound 2.53 µM): 0.946
relative viability ([14]; first compound 8 µM): 1.02
relative viability ([15]; first compound 0.08 µM): 1.03
relative viability ([15]; first compound 0.253 µM): 1.05
relative viability ([15]; first compound 0.8 µM): 1.08
relative viability ([15]; first compound 2.53 µM): 0.999
relative viability ([15]; first compound 8 µM): 0.983
relative viability ([16]; first compound 0.08 µM): 0.96
relative viability ([16]; first compound 0.253 µM): 1.14
relative viability ([16]; first compound 0.8 µM): 0.906
relative viability ([16]; first compound 2.53 µM): 0.886
relative viability ([16]; first compound 8 µM): 0.898
relative viability ([17]; first compound 0.08 µM): 0.512
relative viability ([17]; first compound 0.253 µM): 1.09
relative viability ([17]; first compound 0.8 µM): 1.35
relative viability ([17]; first compound 2.53 µM): 0.882
relative viability ([17]; first compound 8 µM): 0.98
relative viability ([18]; first compound 0.08 µM): 0.786
relative viability ([18]; first compound 0.253 µM): 0.885
relative viability ([18]; first compound 0.8 µM): 0.835
relative viability ([18]; first compound 2.53 µM): 0.779
relative viability ([18]; first compound 8 µM): 0.985
relative viability ([19]; first compound 0.08 µM): 0.783
relative viability ([19]; first compound 0.253 µM): 0.907
relative viability ([19]; first compound 0.8 µM): 0.969
relative viability ([19]; first compound 2.53 µM): 0.789
relative viability ([19]; first compound 8 µM): 0.848
relative viability ([20]; first compound 0.08 µM): 1.06
relative viability ([20]; first compound 0.253 µM): 1.08
relative viability ([20]; first compound 0.8 µM): 1.16
relative viability ([20]; first compound 2.53 µM): 1.01
relative viability ([20]; first compound 8 µM): 1.2
relative viability ([21]; first compound 0.08 µM): 0.952
relative viability ([21]; first compound 0.253 µM): 1.13
relative viability ([21]; first compound 0.8 µM): 0.645
relative viability ([21]; first compound 2.53 µM): 0.611
relative viability ([21]; first compound 8 µM): 0.775
relative viability ([22]; first compound 0.08 µM): 0.772
relative viability ([22]; first compound 0.253 µM): 1.27
relative viability ([22]; first compound 0.8 µM): 1.05
relative viability ([22]; first compound 2.53 µM): 0.723
relative viability ([22]; first compound 8 µM): 0.648
